Experimental data from US4115587A, “Fatty acid amides of norfenfluramine and compositions and methods thereof” (A. H. Robins Company, Inc., priority 1976, dated 1978).

Key:
[1] = tested on: Serum Triglycerides and Cholesterol; experiment: Triton-induced hyperlipidemia test (Table 1); assay type: in vivo, male Sprague-Dawley rats; details: 140 mg/kg p.o.; for % Change Cholesterol / % Change Triglycerides: vs control; for Serum Cholesterol / Serum Triglycerides: ± SD
Method: Fasted, male Sprague-Dawley rats weighing 250-350 g were fed ad libitum a commercial lab chow with free access to water. The animals were fasted overnight and administered Triton-WR-1339 (produced by Ruger Chemical Company, Inc., Irvington, New Jersey) as described by Schurr et al.; Lipids 7 68(1972) except the procedure was modified to use the saphenous vein and divided doses of 70 mg/kg. The rats were anesthetized with sodium pentobarbital and terminally bled by heart puncture. Serum was stored at -20° C. until it was analyzed for total cholesterol and triglycerides. Comparison was also made with clofibrate.

[2] = tested on: Serum and Liver Lipids; experiment: Linoleamide of norfenfluramine in rats fed a hypercholesteremic diet: serum and liver lipids (Table 6); assay type: in vivo; details: 0.2% in food
Method: General feeding experiments were conducted on rats to determine the effect of the amides of this invention on serum and liver lipids of animals fed a basal diet and a basal diet supplemented with cholesterol. In addition, the effect of these drugs on serum lipoproteins was studied as well as their effect on body weight, gross feed efficiency, liver weight, appetite and energy utilization with respect to their metabolic size. Male, Sprague-Dawley rats weighing 150-175 g. were housed in cages with raised wire floors in a room kept at a temperature of 24°-26° C. with a 12-hour day and 12-hour night cycle, fed ad libitum a semipurified diet consisting by weight % composition: vitamin-free casein, 20; glucose, 63; hydrogenated coconut oil, 10; GBI Vitamin Fortification Mixture, Cat. #40060 obtained from General Biochemical Company of Chargrin Falls, Ohio, 1; modified salt mix of Williams and Briggs, Cat. #170911 obtained from General Biochemical Company, 4; and cellulose, 2; and watered. The modified salt mix provided the following amounts in grams of elements per Kg. of diet:
Diets were supplemented with 0.5% cholic acid, 1% cholesterol, and drug at the expense of glucose. The experimental period was 18-21 days with body weight and food measured at specified intervals. Animals were fasted overnight and terminally bled by cardiac puncture. Blood was anti-coagulated with ethylenediamine tetracetic acid and plasma was separated by centrifugation, and stored at -20° C. Livers were excised, weighed, and stored at -20° C. All samples remained at this temperature until they were analyzed for total lipids, total cholesterol, triglycerides and phospholipids. Gross feed efficiency together with the effect of metabolic size on food intake and the effect of drug on energy utilization were determined.
(a) ± values are standard deviation of 10 animals per group.
(b) Semi-purified diet supplemented with 1% cholesterol and 0.5% cholic
acid at expense of glucose.

Structure (SMILES) | % Change Cholesterol ([1]; Test Group IV) | % Change Triglycerides ([1]; Test Group IV) | Serum Cholesterol ([1]; Test Group IV) | Serum Triglycerides ([1]; Test Group IV) | Liver Cholesterol ([2]; SD 0.73 (10 animals), p<.05) | Liver Triglycerides ([2]; SD 3.67 (10 animals), p<.05) | Serum Phospholipids ([2]; SD 18.4 (10 animals)) | Serum Cholesterol ([2]; SD 30 (10 animals), p<.05) | Serum Triglycerides ([2]; SD 62 (10 animals), p<.05) | Liver Phospholipids ([2]; SD printed + 8.75 (10 animals)) | % Change Triglycerides ([1]; Test Group I) | Serum Cholesterol ([1]; Test Group I) | Serum Triglycerides ([1]; Test Group I)
CCCCCCCCCCCCCCCCCC(=O)NC(C)Cc1cccc(C(F)(F)F)c1 (stereo not drawn) [Ex.4, N-[1-methyl-2-(3-trifluoromethylphenyl)ethyl]octadecanamide] | -24% | -74% | 214.3 ± 91.6 mg/100 ml | 160.0 ± 110.0 mg/100 ml |  |  |  |  |  |  |  |  | 
CCCCCCCC/C=C/CCCCCCCC(=O)NC(C)Cc1cccc(C(F)(F)F)c1 (stereo not drawn) [Ex.3, N-[1-methyl-2-(3-trifluoromethylphenyl)ethyl]octadec-9-enamide trans isomer] | -25% | -58% | 210.0 ± 47.8 mg/100 ml | 260.0 ± 137.8 mg/100 ml |  |  |  |  |  |  |  |  | 
CCCCC/C=C\C/C=C\CCCCCCCC(=O)NC(C)Cc1cccc(C(F)(F)F)c1 (stereo not drawn) [Ex. 1, N-[1-methyl-2-(3-trifluoromethylphenyl)ethyl]octadeca-9,12-dienamide(cis-cis)] |  |  |  |  | 7.15 mg/g | 5.59 mg/g | 105.4 mg/100 ml | 212 mg/100 ml | 156 mg/100 ml | 24.1 mg/g | -54% | 209.0 ± 16.4 mg/100 ml | 268.7 ± 69.6 mg/100 ml
CCCCCCCC/C=C\CCCCCCCC(=O)NC(C)Cc1cccc(C(F)(F)F)c1 (stereo not drawn) [Ex.2, N-[1-methyl-2-(3-trifluoromethylphenyl)ethyl]octadec-9-enamide cis isomer] | -39% | -73% | 173.3 ± 10.2 mg/100 ml | 166.3 ± 37.2 mg/100 ml |  |  |  |  |  |  |  |  | 
